Measurements: EP0714404B1, “ANTI-INFLAMMATORY PEPTIDES” (CURATIVE TECHNOLOGIES, INC., priority 1993, dated 1995)
Read-outs that look alike come from different tables or passages of the source. Residues, ends and D or L forms follow the SMILES beside them.

Experiments:
[1] = system: neutrophils; assay: neutrophil chemotaxis to f-Met-Leu-Phe (Neuroprobe chambers); format: cell-based; settings: fluorescence at 530 nm, 1 hr; FIGURE 3
Method: The ability of CT-112 (SEQ. ID NO: 1) to inhibit chemotaxis of neutrophils in response to a variety of agents was assessed using Neuroprobe chemotaxis chambers. For these assays, neutrophils were resuspended in Hank's balanced salt solution with Ca^2+ and Mg^2+ to give a 5 x 10^6 cells/ml suspension after the cells were labeled with 1',7'-bis(2-carboxyethyl)-5-(6)-carboxyfluorescein. The neutrophils were exposed to CT-112 (SEQ. ID NO: 1) for approximately 15 min prior to addition to the chemotaxis chambers. CT-112 (SEQ. ID NO: 1) was present in both the top and bottom of the chambers, and the chemoattractant, either f-Met-Leu-Phe, leukotriene B4 or interleukin-8, was added to the bottom of chamber. Cells which had migrated through the membrane were determined by fluorescence at 530 nm at 1 hr after initiation of the assay.

[2] = system: Inflammatory Cell Influx; assay: carrageenan-induced model of peritonitis, inflammatory cell influx; format: in vivo, Mice; settings: pump 60 mg CT-112/kg/day
Method: Mice (C57BL/6UAF, females, 12 weeks old) were implanted with Alzet mini pumps set to deliver 60 mg CT-112/kg/day. Six days post-implantation, the mice were challenged with an intraperitoneal injection of 0.3 ml of carrageenan in PBS (10 mg/ml). The peritoneal cavity was lavaged with 15 ml of Hank's Balanced Salt Solution (Ca^2+- and Mg^2+-free) at 24, 48 and 72 hr post-challenge. The lavage fluid was centrifuged (500 g, 5 min), fixed with LeukoStat fixative and stained with LeukoStat staining solution. The slides were analyzed under a microscope for the different types of inflammatory cells, such as macrophages, lymphocytes and neutrophils. At the 48-hr time point, 5 control mice were also lavaged.

[3] = system: Delayed Type Hypersensitivity; format: in vivo, mice
Method: CT-112 (SEQ. ID NO: 1) was tested for its ability to modulate the immune response in a mouse model of delayed hypersensitivity (Filipp et al., 1984, Allergy, 39: 499-507; Diezel et al., 1989 J. Invest. Dermatol. 93:322-326). The mice used in this study were 8-wk old hairless females (Jackson Laboratories). The mice were sensitized to a contact allergen (1-chloro-2,4-dinitrobenzene, DNCB) by painting the dorsothoracic region twice daily for 5 consecutive days with 50 µl of 0.5% DNCB in 75% acetone:25% vegetable oil. The animals were allowed to rest for 24 hr prior to challenge with DNCB. On the sixth day after initiation of the sensitization treatments, the animals were challenged with 50 µl of DNCB solution applied to the left ear. After 24 hrs, the ear thickness was determined and compared to the unchallenged ear.
The treatment groups were as follows: • a) PBS control; • b) Prednisone (intraperitoneal injection of 25 mg/kg, 2 hr prior to challenge); • c) 7-day pump (60 mg CT-112/kg/24 hr); • d) CT-112 (intraperitoneal injections of 60 mg/kg/injection at 3, 1, and 0.25 hr prior to challenge and 3, 6 and 21 hr post-challenge); • e) DMSO control (topical application of 50 µl at 3, 1 and 0.25 hr prior to challenge; and • f) CT-112 in DMSO (20 mg/ml, topical application of 50 µl at 3, 1, and 0.25 hr prior to challenge and 3, 6 and 21 hr post-challenge).

[4] = acute toxicity in rats; format: in vivo; settings: rats, 100, 500 or 1,000 mg/kg
Method: Rats were dosed with CT-112 (SEQ. ID NO: 1) at 100, 500 or 1,000 mg/kg. […] All rats returned to normal appearance the day after treatment.

## CC(C)[C@H](NC(=O)[C@H](CCC(N)=O)NC(=O)[C@H](CO)NC(=O)[C@@H](NC(=O)[C@@H](N)[C@@H](C)O)[C@@H](C)O)C(=O)N[C@@H](CCCNC(=N)N)C(=O)N1CCC[C@H]1C(=O)N[C@@H](CCCNC(=N)N)C(=O)O [CT-112, Thr-Thr-Ser-Gln-Val-Arg-Pro-Arg] (H-TTSQVRPR-OH)
[1]
  chemotactic migration of neutrophils to f-Met-Leu-Phe: effectively inhibited
[2]; 24 hr post carrageenan
  Absolute Cell Number Lymphocytes: 16.9 ± 5.9
  Absolute Cell Number Macrophages: 19.5 ± 10
  Absolute Cell Number Neutrophils: 106 ± 29
[2]; 48 hr post carrageenan
  Absolute Cell Number Lymphocytes: 12.5 ± 7.6
  Absolute Cell Number Macrophages: 126 ± 43
  Absolute Cell Number Neutrophils: 134 ± 77
[2]; 72 hr post carrageenan
  Absolute Cell Number Lymphocytes: 45.1 ± 42
  Absolute Cell Number Macrophages: 255 ± 125
  Absolute Cell Number Neutrophils: 48.4 ± 28
[3]; 7-day pump, 60 mg CT-112/kg/24 hr
  Thickness Difference (Left-Right): 0.00087 ± 0.000398 in
[3]; ip 60 mg/kg/injection at 3, 1, 0.25 hr prior and 3, 6, 21 hr post-challenge
  Thickness Difference (Left-Right): 0.00169 ± 0.000643 in
[3]; topical, 20 mg/ml in DMSO, 50 µl at 3, 1, 0.25 hr prior and 3, 6, 21 hr post-challenge
  Thickness Difference (Left-Right): 0.0035 ± 0.000408 in
[4]
  lesions at necropsy: No lesions were visible
[4]; control vs treated
  mean body weight or mean body weight gain: no statistical differences
[4]; several rats at 500 and 1,000 mg/kg, day of treatment
  clinical effects: Transient clinical effects (hypoactivity, hypersensitiviy, staggered gait, cyanosis and absence of righting reflex)
